Assay results published in PubChem BioAssay AID1963826 (Molecular Pharmacology Branch, DTP, NCI, 2024).

Test system: 926638-142-R-J1-PDC complex spheroid viability
Experiment: Anticancer human tumor 926638-142-R-J1-PDC patient-derived endometrial carcinoma cell line growth inhibition [POLQ]
Settings: for IC50: curve of first compound; for viability, T/C: stronger effect = lower value
Procedure: Multicellular complex tumor spheroid response to Polymerase (POL) inhibitors (novobiocin, ART-558, RP6685) in combination with a variety of drugs and investigational agents in selected tumor cell lines
The POL inhibitors (novobiocin, ART-558, and RP6685) were evaluated both individually and in combination with standard of care and investigational anticancer small molecules within a complex spheroid model of solid tumors. . Complex spheroids include a stromal component modeled by human endothelial cells (HUVEC) and fibroblasts modeled by human mesenchymal stem cells (MSCs). The concentration ranges selected for each drug and investigational agent were based upon clinically achievable concentrations if the clinical Cmax of the agent was known.
Compounds. The drugs and investigational agents: novobiocin (NSC847541), ART-558 (NSC835418), RP-6685 (NSC848927), peposertib (NSC802822), ceralasertib (NSC780249), elimusertib (NSC800525), camonsertib (NSC841442), AZD-1390 (NSC803789), olaparib (NSC753686), talazoparib (NSC767125), rucaparib (NSC756644), sotorasib (NSC818433), MRTX-1133 (NSC836407), SN-38 (NSC673596), topotecan (NSC609699), epotoside (NSC141540), doxorubicin (NSC123127), gemcitabine (NSC613327), 5-fluorouracil (NSC19893), paclitaxel (NSC125973), vemurafenib (NSC761431), MSA-2 (NSC828583), SN-011 (NSC837082), adavosertib (NSC754352), prexasertib (NSC758257), carboplatin (NSC241240) and oxaliplatin (NSC266046), were obtained from the National Cancer Institute (NCI) Developmental Therapeutics Program Chemical Repository (21). The FDA-approved anticancer drug set is available from the Developmental Therapeutics Program at https://dtp.cancer.gov/organization/dscb/obtaining/. […] The stock solutions were prepared in dimethyl sulfoxide (DMSO, Sigma-Aldrich, St. Louis, MO, cat. D2650), except for the platinum compounds which were prepared in saline (Quality Biological, Gaithersburg, MD, cat. 114-055-101), at 800-fold the tested concentration and stored at -70 degrees C prior to their use. All drugs and investigational agents were tested over a range starting from a high concentration at or near the clinical Cmax and decreasing in half-log increments. If the clinical Cmax for an agent had not been determined, the highest concentration tested was 10 microM, except for SN-38, which was tested at a high concentration of 1 microM.
Cell Culture. All cells were maintained in an incubator at 37 degrees C and 5% CO2 with 95% humidity. The PDC lines were cultured according to standard operating procedures established by the NCI PDMR (https://pdmr.cancer.gov). Table 3 of the manuscript, lists the cell lines along with the number of the three cell types plated to form the mct-spheroids and media for tumor cell growth. After thawing, all PDC lines, except 997537-175-T-J1-PDC and 415267-285-R-J2-PDC, were cultured in Matrigel-coated flasks prepared with a working solution of 1X Ham's F-12 nutrient mix, without supplementation (Thermo Fisher Scientific, cat. 11765054), 100 U/mL penicillin-streptomycin (Thermo Fisher Scientific, cat. 15140122), and 2.5% Matrigel (Corning Inc., Corning, NY, cat. 354248) for the first three passages. The two PDC lines 997537-175-T-J1-PDC and 415267-285-R-J2-PDC were cultured on uncoated flasks. The 857933-349-R-J2-PDC line was cultured in 6C/Colon 1B media containing advanced DMEM/F-12 (Thermo Fisher Scientific, cat. 12634028), 10 mM HEPES (Thermo Fisher Scientific, cat. 15630080), 1X GlutaMAX supplement (Thermo Fisher Scientific, cat. 35050061), 0.1 mg/mL primocin (InvivoGen, San Diego, CA, cat. ant-pm-2), 10% defined fetal bovine serum, heat inactivated (HyClone Laboratories Inc., Logan, UT, cat. SH30070.03HI), 50% L-WRN conditioned media (ATCC, cat. CRL-3276), 1.25 mM N-Acetyl-L-cysteine (Sigma-Aldrich, cat. A9165), 10 mM nicotinamide (Sigma-Aldrich, cat. N0636), 1X B-27 supplement (Thermo Fisher Scientific, cat. 17504044), 1X N-2 supplement (Thermo Fisher Scientific, cat. […]
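Also: spheroids exposed to drugs for one week before readout.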
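For viability, T/C in this document: percent viability relative to DMSO vehicle control wells set as 100%.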

SMILES: C#Cc1c(F)ccc2cc(O)cc(-c3ncc4c(N5CC6CCC(C5)N6)nc(OCC56CCCN5CC(F)C6)nc4c3F)c12 (configuration not stated) + Cc1cccc(N(C)C(=O)C2C(O)CCN2c2nc(C)cc(C(F)(F)F)c2C#N)c1
- IC50 (second compound 0.0316 µM): > 10 µM
- IC50 (second compound 0.1 µM): > 10 µM
- IC50 (second compound 0.316 µM): > 10 µM
- IC50 (second compound 1 µM): > 10 µM
- IC50 (second compound 3.16 µM): > 10 µM
- IC50 (second compound 10 µM): > 10 µM
- viability, T/C (second compound 0.0316 µM, first compound 0.0316 µM): 90.9%
- viability, T/C (second compound 0.0316 µM, first compound 0.1 µM): 76.7%
- viability, T/C (second compound 0.0316 µM, first compound 0.316 µM): 69.9%
- viability, T/C (second compound 0.0316 µM, first compound 1 µM): 63.8%
- viability, T/C (second compound 0.0316 µM, first compound 3.16 µM): 58.3%
- viability, T/C (second compound 0.0316 µM, first compound 10 µM): 56.9%
- viability, T/C (second compound 0.1 µM, first compound 0.0316 µM): 87.2%
- viability, T/C (second compound 0.1 µM, first compound 0.1 µM): 96.2%
- viability, T/C (second compound 0.1 µM, first compound 0.316 µM): 84.6%
- viability, T/C (second compound 0.1 µM, first compound 1 µM): 71.9%
- viability, T/C (second compound 0.1 µM, first compound 3.16 µM): 60.5%
- viability, T/C (second compound 0.1 µM, first compound 10 µM): 63.9%
- viability, T/C (second compound 0.316 µM, first compound 0.0316 µM): 86.2%
- viability, T/C (second compound 0.316 µM, first compound 0.1 µM): 75.1%
- viability, T/C (second compound 0.316 µM, first compound 0.316 µM): 78.2%
- viability, T/C (second compound 0.316 µM, first compound 1 µM): 71.8%
- viability, T/C (second compound 0.316 µM, first compound 3.16 µM): 54%
- viability, T/C (second compound 0.316 µM, first compound 10 µM): 61.7%
- viability, T/C (second compound 1 µM, first compound 0.0316 µM): 95.2%
- viability, T/C (second compound 1 µM, first compound 0.1 µM): 76%
- viability, T/C (second compound 1 µM, first compound 0.316 µM): 66.9%
- viability, T/C (second compound 1 µM, first compound 1 µM): 76.2%
- viability, T/C (second compound 1 µM, first compound 3.16 µM): 70.9%
- viability, T/C (second compound 1 µM, first compound 10 µM): 52.5%
- viability, T/C (second compound 3.16 µM, first compound 0.0316 µM): 81.1%
- viability, T/C (second compound 3.16 µM, first compound 0.1 µM): 84.3%
- viability, T/C (second compound 3.16 µM, first compound 0.316 µM): 89.2%
- viability, T/C (second compound 3.16 µM, first compound 1 µM): 58.5%
- viability, T/C (second compound 3.16 µM, first compound 3.16 µM): 60.1%
- viability, T/C (second compound 3.16 µM, first compound 10 µM): 53.5%
- viability, T/C (second compound 10 µM, first compound 0.0316 µM): 84.8%
- viability, T/C (second compound 10 µM, first compound 0.1 µM): 79%
- viability, T/C (second compound 10 µM, first compound 0.316 µM): 67.2%
- viability, T/C (second compound 10 µM, first compound 1 µM): 71.8%
- viability, T/C (second compound 10 µM, first compound 3.16 µM): 58.4%
- viability, T/C (second compound 10 µM, first compound 10 µM): 66.5%
